Experiment: Henry solubility constant Hcp at 303 K (mol/(m3 Pa))
Settings: reference: Hovorka et al. (2002)

Row | SMILES | Henry solubility constant Hcp at 303 K
1 | COC(=O)CC(C)=O [3-oxobutanoic acid, methyl ester] | 6.4
2 | COCC(=O)OC [methyl methoxyacetate] | 2.5
3 | CCOCCOC(C)=O [2-ethoxyethyl ethanoate] | 3
4 | COCCOC(C)=O [2-methoxyethyl ethanoate] | 3
5 | C=CC#N [2-propenenitrile] | 0.076

Experiment: Henry solubility constant Hcp at 298.15 K (mol/(m3 Pa))
Settings: reference: Hovorka et al. (2002)

Row | SMILES | Henry solubility constant Hcp
6 | O=C1CCCCC1 [cyclohexanone] | 0.86
7 | COC(C)=O [methyl ethanoate] | 0.083
8 | O=C1CCCC1 [cyclopentanone] | 0.82
9 | CC(C)CO [2-methyl-1-propanol] | 0.67
10 | CC#N [ethanenitrile] | 0.32
11 | OC1CCCC1 [cyclopentanol] | 2.2

Source: Sander's compilation of Henry's law constants (doi:10.1016/s0378-3812(02)00087-0)
